Assay results as given in patent US20230144898A1, “INHIBITOR OF ASPARTIC ACID SYNTHESIS IN TUMOR CELLS, INHIBITOR OF SPHEROID FORMATION OF TUMOR CELLS, INHIBITOR OF TUMOR CELL METASTASIS, ACTIVITY ENHANCER OF GLYCOLYTIC INHIBITOR, AND PHARMACEUTICAL COMPOSITION FOR SUPPRESSING AND/OR PREVENTING TUMOR METASTASIS” (CCI HOLDINGS INC., priority 2020, published 2023).
≈ marks a conversion by molar mass, not a printed value. Like-named read-outs stand apart in the source and are kept apart here.

Columns and labels:
B16F10 cells = assay: Influence on anticancer action of 2-DG, cell viability (Test Example 3); type: cell-based, mouse; conditions: 2-DG 3 mM to 3 nM, negative control section (DMSO), 36 hours
Protocol: Specifically, to start with, B16F10 cells were seeded in a six-well plate in an amount of 0.5×10^5 cells/mL. Next, after 24 hours starting from seeding, 2-DG (concentration changed from 3 mM to 3 nM) was added and simultaneously treated with neopetasin at a concentration of 0.3 µM or 3 µM. Then, after 36 hours starting from this treatment, the cell viability was measured through the same method as in Test Example 1. Moreover, as a negative control section, DMSO was administered to perform the same experiment.

[1] = test system: CMeCl cells (canine malignant melanoma cells); assay: Proliferation inhibition, CMeC1 cells, trypan blue viable cell count (Test Example 1); type: cell-based; conditions: Cell line: CMeC1, incubated for 72 hours; for IC50: read-out: IC50
Protocol: Four compounds of petasin, S-petasin, neopetasin and neo-S-petasin were evaluated for the inhibitory effect on proliferation of mouse or canine malignant melanoma cells by the following method.
B16F10 cells (mouse malignant melanoma cells) were obtained from JCRB Cell Bank (National Institutes of Biomedical Innovation, Health and Nutrition). In addition, CMeCl cells (canine malignant melanoma cells) were obtained from Veterinary Surgery Laboratory, Graduate School of Agricultural and Life Sciences, the University of Tokyo. Furthermore, A2058 cells (human malignant melanoma cells) were obtained from JCRB Cell Bank (National Institutes of Biomedical Innovation, Health and Nutrition). B16F10 cells were cultured in a 37° C. incubator (air/CO2 = 95/5 (v/v)) using Dulbecco’s modified Eagle’s medium (DMEM), CMeCl cells in RPMI (Roswell Park Memorial Institute) medium (RPMI1640), and A2058 cells in E-MEM medium.
First, CMeCl cells (canine malignant melanoma cells) were seeded in a six-well plate so as to be 0.5×10^5 cells/mL, and after 24 hours therefrom, each of the above four kinds of compounds (final concentration: 0.01 to 100 µg/mL) was suspended in the medium at a ratio of 0.1% and incubated for 72 hours. 72 hours after the start of culture, the number of viable cells was measured by trypan blue staining. At this time, viable cells (cell viability%) were calculated as the relative number of cells when the number of viable cells in a negative control section (DMSO treatment) was taken as 100%. Then, IC50 was calculated using a GraphPad Prism software system (GraphPad Software Inc.).

colon cancer cell lines = conditions: cited from earlier work
[2] = test system: B16F10 cells (mouse malignant melanoma cells); conditions: cited from earlier work
[3] = test system: mitochondria in B16F10 cells; assay: MitoTracker Orange staining of mitochondria (Test Example 8); type: cell-based, mouse; conditions: neopetasin 3 µM, metformin 5000 µM; 48 hours
Protocol: In order to determine the action mechanism of neopetasin on inhibiting the aspartic acid synthesis in tumor cells, the influence of neopetasin on mitochondria in B16F10 cells was evaluated. Specifically, B16F10 cells treated with neopetasin (3 µM) for 48 hours through the same method as in Test Example 1 were stained using MitoTracker Orange (Thermo Fisher Scientific, MA, USA), which labels mitochondria depending on membrane potential. In addition, as a positive control section, in place of neopetasin, metformin known as a mitochondrial respiratory chain Complex I inhibitor (mitochondrial toxin) was used at a concentration of 5000 µM to perform the same experiment. Subsequently, the cells stained as described above were photographed with a fluorescence microscope (FIG. 9A). In addition, the relationship between fluorescence intensity of the cells and the distribution of the number of cells was measured using an image cytometer (Tali, Thermo Fisher Scientific, MA, USA) (FIG. 9B).

[4] = test system: mitochondria in B16F10 cells; assay: Electron microscope observation of treated cells (Test Example 8); type: cell-based, mouse; conditions: neopetasin 3 µM, metformin 5000 µM
Protocol: Following the above results, the cells respectively treated with neopetasin (3 µM) and metformin (5000 µM) in the above were observed using an electron microscope. Furthermore, DMSO was administered to the negative control section, and the same experiment was performed.

With O=CC[C@@H](O)[C@H](O)[C@H](O)CO [2-DG, 2-deoxy-D-glucose, reference compound] the cell viability (B16F10 cells) was “reduced in a concentration-dependent manner”.

In the case of C=C(C)[C@@H]1C[C@@]2(C)C(=CC1=O)CC[C@@H](OC(=O)/C(C)=C\C)[C@@H]2C [Petasin, petasin], the IC50 ([1]; Canis lupus familiaris, 72 h) is given as 2810 nM, the “migration and invasion of colon cancer cell lines” value (colon cancer cell lines) is given as “suppressed migration and invasion” and the “proliferation of colon cancer cell lines” value (colon cancer cell lines) is given as “inhibited proliferation”.

In the case of C=C(C)[C@@H]1C[C@@]2(C)C(=CC1=O)CC[C@@H](OC(=O)/C=C\SC)[C@@H]2C [S-petasin, reference compound], the “IC50 (µg/mL)” value [1] is reported as 0.755 µg/mL (≈ 2.26 µM) and the IC50 [1] is reported as 2260 nM.

For N.N.[Cl][Pt][Cl] [cisplatin], the “IC50 for B16F10 cells (classical anticancer agent)” value [2] is given as 5 µg/mL.

For CN(C)C(=N)N=C(N)N [metformin, reference compound], the “MitoTracker Orange fluorescence intensity” value [3] was “enhanced fluorescence intensity” and the “influence on mitochondria (electron microscope)” value [4] was “the influence on mitochondria was mild”.

With neo-S-petasin [reference compound] the “IC50 (µg/mL)” value [1] was 0.537 µg/mL and the IC50 [1] was 1600 nM.
